According to paper PMC9112895, “Selective Inhibition of Plasmodium falciparum ATPase 6 by Artemisinins and Identification of New Classes of Inhibitors after Expression in Yeast” (Antimicrobial Agents and Chemotherapy, 2022):

How the values were obtained:
L263E PfATP6 = target: T1, L263E PfATP6 (Plasmodium falciparum, UniProt Q08853, L263E); experiment: Yeast whole-cell assay, PfATP6 L263E mutant; type: cell-based; settings: L263 mutant; read-out: IC50 (mean ± SD)
T1 construct: expressed in transfected cells; host or cells: Saccharomyces cerevisiae K667-derived strain
T1 sequence (Q08853 1-1228 L263E): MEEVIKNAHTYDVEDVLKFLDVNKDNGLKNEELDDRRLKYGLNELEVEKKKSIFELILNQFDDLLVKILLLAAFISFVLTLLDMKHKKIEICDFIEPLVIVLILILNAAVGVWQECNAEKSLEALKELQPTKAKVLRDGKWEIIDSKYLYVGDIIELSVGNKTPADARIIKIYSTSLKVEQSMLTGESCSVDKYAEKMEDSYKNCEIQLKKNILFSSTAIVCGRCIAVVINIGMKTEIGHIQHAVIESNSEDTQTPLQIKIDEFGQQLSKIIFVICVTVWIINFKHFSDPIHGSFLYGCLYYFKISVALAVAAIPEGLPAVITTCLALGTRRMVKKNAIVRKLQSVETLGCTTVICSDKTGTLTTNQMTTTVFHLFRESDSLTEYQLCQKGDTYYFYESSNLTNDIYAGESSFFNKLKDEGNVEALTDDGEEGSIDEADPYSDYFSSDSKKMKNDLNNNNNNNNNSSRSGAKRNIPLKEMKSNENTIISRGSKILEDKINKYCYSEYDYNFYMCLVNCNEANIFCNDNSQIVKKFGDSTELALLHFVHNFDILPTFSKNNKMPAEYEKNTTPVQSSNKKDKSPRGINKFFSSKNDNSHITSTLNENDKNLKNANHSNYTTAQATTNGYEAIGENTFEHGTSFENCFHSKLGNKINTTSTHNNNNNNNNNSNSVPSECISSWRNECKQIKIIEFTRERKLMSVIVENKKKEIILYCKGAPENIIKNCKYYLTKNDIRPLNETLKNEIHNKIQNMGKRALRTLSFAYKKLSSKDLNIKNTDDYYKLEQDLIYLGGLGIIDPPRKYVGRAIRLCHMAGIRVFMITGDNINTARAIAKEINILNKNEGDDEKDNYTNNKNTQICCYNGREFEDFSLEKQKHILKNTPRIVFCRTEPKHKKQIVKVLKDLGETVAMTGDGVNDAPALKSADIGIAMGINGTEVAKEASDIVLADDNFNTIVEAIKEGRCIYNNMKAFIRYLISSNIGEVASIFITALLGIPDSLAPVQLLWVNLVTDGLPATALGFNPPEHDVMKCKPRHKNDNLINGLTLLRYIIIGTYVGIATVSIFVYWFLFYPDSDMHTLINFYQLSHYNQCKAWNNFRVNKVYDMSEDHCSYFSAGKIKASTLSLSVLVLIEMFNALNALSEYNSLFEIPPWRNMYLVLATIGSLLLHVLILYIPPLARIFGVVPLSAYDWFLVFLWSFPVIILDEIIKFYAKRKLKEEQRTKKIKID
Experimental: Yeast transformations were performed using the method described by Gietz and Schiestl ([48]), and transformants were selected by an uracil auxotrophic marker. Transformations were confirmed by colony PCR. Both K667 and K667Δpdr5::HIS were transformed with the following plasmids: pUGpd plasmid as a vector-only control (derived from pRS316 [49]); br434 plasmid (derived from pRS316 [50]) containing the SERCA1a coding region from rabbit skeletal fast-twitch muscle (pbr434-SERCA1a); and pUGpd containing the yeast-optimized coding region of PfATP6 from Plasmodium falciparum (pUGpd-PfATP6). Site-directed mutagenesis was performed on the SERCA1a coding region to produce the mutation E255L in the protein. Mutations were also introduced into the PfATP6 coding region to produce mutations L263E, A623E, and S769N and the double mutation A623E/S769N ([13]).
The screening assay used here was developed from the protocol used by Pulcini et al. ([13]). […] The optimal calcium concentration was periodically monitored and, if necessary, adjusted using a calcium concentration range of 10 to 30 mM. […] The yeast growth was estimated from the absorbance at 620 nm in a Tecan plate reader. […] The data collected were analyzed using GraphPad Prism v9.0 (GraphPad software, San Diego, CA, U.S.A).

PfATP6 = PfATP6 (Plasmodium falciparum, UniProt Q08853); experiment: Yeast whole-cell growth inhibition (functional rescue) assay, K667[PfATP6]; type: cell-based; parameters: pUGpd containing the yeast-optimized coding region of PfATP6 from Plasmodium falciparum; expressed in transfected cells; host or cells: Saccharomyces cerevisiae K667 and K667Δpdr5::HIS
Chain of PfATP6 (Q08853 whole entry): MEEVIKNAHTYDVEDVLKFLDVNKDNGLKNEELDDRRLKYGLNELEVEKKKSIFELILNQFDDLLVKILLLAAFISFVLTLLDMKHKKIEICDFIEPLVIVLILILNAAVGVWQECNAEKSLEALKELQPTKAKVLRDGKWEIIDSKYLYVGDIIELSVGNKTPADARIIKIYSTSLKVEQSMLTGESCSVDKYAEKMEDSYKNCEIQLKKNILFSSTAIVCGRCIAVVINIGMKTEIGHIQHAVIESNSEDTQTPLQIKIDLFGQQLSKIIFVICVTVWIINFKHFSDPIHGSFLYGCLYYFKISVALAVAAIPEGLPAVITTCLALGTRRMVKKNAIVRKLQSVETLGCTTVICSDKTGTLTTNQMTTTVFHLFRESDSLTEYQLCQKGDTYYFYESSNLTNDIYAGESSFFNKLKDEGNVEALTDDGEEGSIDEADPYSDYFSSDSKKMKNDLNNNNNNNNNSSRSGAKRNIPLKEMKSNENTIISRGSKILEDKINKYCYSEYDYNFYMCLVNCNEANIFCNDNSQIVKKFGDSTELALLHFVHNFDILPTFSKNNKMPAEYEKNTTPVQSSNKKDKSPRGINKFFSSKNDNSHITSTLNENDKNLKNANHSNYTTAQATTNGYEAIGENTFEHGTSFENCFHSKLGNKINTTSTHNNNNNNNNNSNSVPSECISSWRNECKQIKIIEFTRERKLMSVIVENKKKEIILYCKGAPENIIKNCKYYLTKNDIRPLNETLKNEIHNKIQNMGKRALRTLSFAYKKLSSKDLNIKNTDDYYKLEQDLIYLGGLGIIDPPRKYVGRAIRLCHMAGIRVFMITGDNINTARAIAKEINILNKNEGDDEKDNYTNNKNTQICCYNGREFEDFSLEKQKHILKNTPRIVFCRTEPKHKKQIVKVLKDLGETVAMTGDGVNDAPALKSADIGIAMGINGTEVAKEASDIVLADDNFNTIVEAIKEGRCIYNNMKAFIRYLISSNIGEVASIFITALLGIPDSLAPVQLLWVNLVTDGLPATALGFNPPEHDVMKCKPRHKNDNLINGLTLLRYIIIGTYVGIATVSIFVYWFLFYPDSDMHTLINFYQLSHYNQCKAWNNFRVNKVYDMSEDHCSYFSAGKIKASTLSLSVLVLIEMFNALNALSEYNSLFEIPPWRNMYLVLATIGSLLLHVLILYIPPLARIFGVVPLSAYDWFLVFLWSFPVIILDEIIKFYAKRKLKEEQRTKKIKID
Experimental: The screening assay used here was developed from the protocol used by Pulcini et al. ([13]). A single colony of the yeast strain to be screened was picked and grown in 5 mL of selective medium until stationary phase was reached. The culture was diluted 100-fold in ampicillin-supplemented yeast extract-peptone-dextrose (YPD) medium to an OD at 620 nm (OD620) equivalent to that of lag phase. YPD medium was supplemented with an appropriate concentration of calcium, depending on the transformed strain. […] The optimal calcium concentration was periodically monitored and, if necessary, adjusted using a calcium concentration range of 10 to 30 mM. A final volume of 200 μL of the yeast culture was added to each well of a 96-well plate, with 5 technical replicates included per inhibitor. All inhibitors were dissolved in dimethyl sulfoxide (DMSO) unless otherwise stated. […] The 96-well plates were incubated at 30°C for 42 h. The yeast growth was estimated from the absorbance at 620 nm in a Tecan plate reader. Growth was normalized with the no-drug control to present data as percent growth. The data collected were analyzed using GraphPad Prism v9.0 (GraphPad software, San Diego, CA, U.S.A).

Compound: CC(=O)C1=C(O)[C@@H]2[C@H]3c4c[nH]c5cccc(c45)C[C@H]3C(C)(C)N2C1=O [CPA, cyclopiazonic acid]
- IC50 (L263E PfATP6): 5.21 µM
- IC50 (PfATP6): 11.6 µM
